Data reported in US20240352066A1, “ANTIMICROBIAL COMPOUNDS AND THE METHOD OF USE” (priority 2021, published 2024).
Values after ≈ are worked out from the molar mass of the structure shown. Where a SMILES comes first, the peptide text is derived from it. [ ]: non-standard residue; d: D form. N(2-thienylmethyl)Gly = O=C(O)CNCc1cccs1; NCyclohexylmethylGly = O=C(O)CNCC1CCCCC1; N(tridecyl)Gly = CCCCCCCCCCCCCNCC(=O)O; Gly(N-2-aminoethyl) = NCCNCC(=O)O; Gly(N-cHex) = O=C(O)CNC1CCCCC1; NHexGly = CCCCCCNCC(=O)O; Nlys = NCCCCNCC(=O)O; Sar = CNCC(=O)O

How the values were obtained:
[1] = tested on: C. neoformans; test: microbe, parasite or virus in culture; type: cell-based, Cryptococcus neoformans; conditions: for interpretation of combination with RMG8-8: FICi<0.5 synergistic, 0.5≤FICi≤4 indifferent, FICi>4 antagonist; for Combination MIC RMG8-8:Drug, RMG8-8 part: RMG8-8 concentration in combination with the named drug; for Combination MIC RMG8-8:Drug, Drug part: drug concentration in combination with RMG8-8; for FICi: named drug in combination with RMG8-8; for MIC: Cryptococcus neoformans, read-out: MIC (compound alone)
Description: Cell solution was diluted into RPMI-MOPS (1:100) followed by another dilution into RPMI-MOPS (1:20). […] Plates were incubated for 72 hours at 35° C. MIC was determined as the lowest concentration of individual compound or combined compounds inhibiting pathogen growth. Fractional inhibitory concentration index (FICi) was determine using the following equation: FICi values were interpreted as follows: FICi<0.5 synergistic; 0.5≤FICi≤4 indifferent; FICi>4 antagonist (Johnson et al., Antimicrob. Agents Chemother. 48, 693-715 (2004)).

[2] = Percent acetonitrile at elution during RP-HPLC purification (hydrophobicity); type: physicochemical; conditions: percent acetonitrile at the time of elution from HPLC
Text: All RMG8-8 derivatives were synthesized via the solid-phase submonomer synthesis method on polystyrene Rink Amide resin (Zuckermann et al. Journal of the American Chemical Society 114, 10646-10647 (1992)). The amines used during synthesis and the peptoid shorthand notations for each monomer are provided in Table 7 and Table 8, respectively. Compounds were purified to greater than 95% by RP-HPLC and compound identity was confirmed by ESI-TOF MS (Table 9). The calculated distribution coefficient at pH 7.4 (c Log D7.4) (via Chemaxon. MarvinSketch 19.17.0, 2019) and the percent acetonitrile at the time of elution during HPLC purification were recorded and serve as measures of hydrophobicity (Table 10). Higher values for c Log D7.4 and percent acetonitrile are indicators of increased compound hydrophobicity. With antimicrobial peptoids, hydrophobicity is directly related to both antimicrobial activity and cytotoxicity (Andreev et al. Biochimica et biophysica acta. Biomembranes 1860 6, 1414-1423 (2018); Bolt et al. Med chem comm 8, 886-896 (2017); Frederiksen et al. Molecules 24, (2019)). The ideal balance of these parameters generally must be determined experimentally. To measure antifungal activity, the minimum inhibitory concentration (MIC), defined as the concentration of compound required to inhibit 90% of fungal growth, was determined against C. neoformans using the broth microdilution method. Mammalian cytotoxicity was evaluated through a cell metabolic activity assay with HepG2 liver carcinoma cells, and select, potentially promising compounds were tested for unwanted hemolytic activity against human red blood cells.
Peptoids were purified via Reversed-Phase High-Performance Liquid Chromatography (RP-HPLC) using a Varian Prepstar SD-1. A gradient of 0-100% water to acetonitrile containing 0.05% TFA made up the mobile phase, and a Supelco Ascentis C18 column (5 μm; 25 cm×21.2 mm; Sigma-Aldrich 581347-U) was used as the stationary phase. Peaks in the chromatogram above 0.1 AU were collected and analyzed via mass spectrometry. The peak product with the desired peptoid was dried down in vacuo and lyophilized overnight. Peptoids were then reconstituted in sterile […] deionized water to create compound stocks of 20 mg/mL.

[3] = tested on: C. neoformans; type: cell-based, Cryptococcus neoformans; conditions: 72 h
Description: The minimum inhibitory concentration (MIC) of peptoids against fungal pathogens C. albicans and C. neoformans was determined following CLSI guidelines (CLSI. Reference method for broth dilution antifungal susceptibility testing of yeasts; approved standard-third edition; CLSI document M27-A3. (Clinical and Laboratory Standards Institute, 2008). […] This inoculant was diluted 1:100 into RPMI-MOPS and then further diluted 1:20 into RPMI-MOPS. 198 μL of inoculant was seeded into each well of a 96 well black-walled plate. 2-fold serial dilutions of 100× peptoid solutions were prepared in water and 2 μL of peptoid were added to each well in triplicate. […] MIC was defined as the lowest concentration of compound preventing fungal growth. This assay was repeated 3 times on separate days with each compound. […] The addition of 0.1 mL cell solution to 9.9 mL of RPMI-MOPS produced a 1:100 cell solution. After vortexing, 0.5 mL of the […] was added to 9.5 mL RPMI-MOPS to produce a 1:20 cell solution. 198 μL of the 1:20 solution was added to the wells of an opaque 96-well plate, apart from the wells designated for the medial control. […] Amphotericin B was used as a positive control, and sterile water was used for the vehicle control. The plates were incubated for 72 hours at 35° C. After incubation, the concentration of compound resulting in no visual growth was recorded as the MIC. All assays performed in biological triplicate on different days.

[4] = Mammalian cytotoxicity, MTT, HepG2; type: cell-based, human; conditions: human, HepG2 hepatocellular carcinoma cells
Description: Hepatocellular carcinoma (HepG2), mouse fibroblast (3T3), human lung (HPL1A), and human keratinocyte (HaCat) cells were cultured in Dulbecco modified eagle media (DMEM) containing 10% fetal bovine serum (FBS) and 1% penicillin, streptomycin, and glutamine (PSG) at 37° C. and 5% CO2. Cells were collected and adjusted to […] to 4×10^5 cells/mL in phenol-red free DMEM and plated (100 μL) 96 well plates. 2-fold serial dilutions of 10× peptoid (11.1 μL) were added to each well in triplicate. Water (vehicle) was used as a negative control. Plates were incubated at 37° C. in 5% CO2 for 72 hours. Thiazolyl blue tetrazolium bromide (MTT) was added to each well (5 mg/mL; 20 μL) and incubated for 3 hours. Media was removed, DMSO (100 μL) was added, and plates were incubated at 37° C. for 10 minutes. Plates were read on a SpectraMax M5 plate reader (Abs. 570 nm). The concentration of compound resulting in a 50% reduction in growth compared to control (toxicity dose 50%; TD50) was determined using GraFit. This procedure was repeated three times on separate days.
Cytotoxicity against HepG2 hepatocellular carcinoma cells was done as previously described (Green et al. ACS infectious diseases, (2022); Corson et al. ACS medicinal chemistry letters 7 12, 1139-1144 (2016)). HepG2 cells were maintained in culture in T-75 flasks using Dulbecco's Modified Eagle's Media (DMEM) with phenol red pH indicator and supplemented with 10% fetal bovine serum (FBS) and 1% penicillin, streptomycin, and glutamine (PSG). The cells were incubated at 37° C. and 5% CO2 in a humidified incubator until desired confluency was achieved. The media was removed from the flask, and the cells were washed 1× with 10 mL of phosphate-buffered saline (PBS; 11.8 mM phosphate, 140.4 mM NaCl; pH 7.4) which was then discarded. To remove the adhered cells from the flask, 2 mL of trypsin was added, and the cells were incubated for 10 minutes. To quench the trypsin, 8 mL of phenol red-free DMEM with 10% FBS and 1% PGS was added, and the cell solution was transferred to a 15 mL conical tube. After the cells were pelleted by centrifugation at 1000 rpm for 5 minutes, the supernatant was poured off and cells resuspended in the volume of phenol red-free media needed for the assay. Cell concentration was determined by counting with a hemocytometer, and the solution was diluted with media until a concentration of 1×10^5 cells/mL was achieved. A 100 μL aliquot of cell solution was added to each well of a 96-well plate, apart from the 3 wells used for a media control. Cells were incubated for 2-3 hours at 37° C. and 5% CO2 until cells were adherent.
Compound stocks of 20 mg/mL were used to prepare 2-fold serial dilutions of each compound in sterile water, giving final concentrations of 200, 100, 50, 25, 12.5, 6.25, 3.13 and 1.56 μg/mL. 11.1 μL of prepared compound solutions was added to the appropriate wells in triplicate. A negative vehicle control of sterile water, as well as the aforementioned media control, were used. The plates were incubated for 72 hours at 37° C. and 5% CO2. After incubation, 20 μL of 5 mg/mL 3-(4,5-dimethylthiazol-2-yl)-2,5-diphenyltetrazolium bromide (MTT) in water was added to each well. The plate was incubated for 3 hours at 37° C. and 5% CO2. Media was removed from each well using a sterile glass Pasteur pipette. 100 μL of DMSO was added to each well and incubated for 15 minutes at 37° C. Absorbance was read at 570 nm using a SpectraMax M5 Plate Reader. This MTT assay was performed in biological duplicate unless discrepant results were observed. If this was the case, the assay was performed in biological triplicate for further verification. The reported value is the average of biological replicates with standard deviation.

[5] = checkerboard, 72 hours at 35° C.

Compound | C. neoformans MIC [3] | CC50 at 72 h [4] | MIC C. neoformans [3] | other results
C[C@@H]1[C@H](O)[C@@H](C)/C=C/C=C/C=C/C=C/C=C/C=C/C=C/[C@H](O[C@@H]2O[C@H](C)[C@@H](O)[C@H](N)[C@@H]2O)C[C@@H]2O[C@](O)(C[C@@H](O)C[C@@H](O)[C@H](O)CC[C@@H](O)C[C@@H](O)CC(=O)O[C@H]1C)C[C@H](O)[C@H]2C(=O)O [Amphotericin B] |  |  |  | interpretation of combination with RMG8-8 [1]: mild additive effect; Combination MIC RMG8-8:Drug, RMG8-8 part [1]: 0.8 µg/mL; MIC (compound alone) [1, 5]: 0.25 µg/mL; Combination MIC RMG8-8:Drug, Drug part [1]: 0.06 µg/mL; FICi [1]: 0.75
CCCCCCCCCCCCCNCC(=O)N(CCCCN)CC(=O)N(CC(=O)N(CC(=O)N(CCN)CC(N)=O)C1CCCCC1)C1CCCCC1 [Compound 3] (H-[N(tridecyl)Gly][Nlys][Gly(N-cHex)][Gly(N-cHex)][Gly(N-2-aminoethyl)]-NH2) | 3.13 µg/mL | 105 ± 3.8 µg/mL (≈ 138 µM) |  | % ACN [2]: 69.3%
CCCCCCCCCCCCCNCC(=O)N(CCCCCC)CC(=O)N(CCCCN)CC(=O)N(CCN)CC(=O)N(CCCCCC)CC(N)=O [Compound 10] (H-[N(tridecyl)Gly][NHexGly][Nlys][Gly(N-2-aminoethyl)][NHexGly]-NH2) | 1.56 to 3.13 µg/mL | 61 ± 9 µg/mL (≈ 79.5 µM) |  | % ACN [2]: 73.3%
CCCCCCCCCCCCCNCC(=O)N(CC(=O)N(CCCCN)CC(=O)N(CCN)CC(=O)N(CC(N)=O)CC1CCCCC1)CC1CCCCC1 [Compound 12] (H-[N(tridecyl)Gly][NCyclohexylmethylGly][Nlys][Gly(N-2-aminoethyl)][NCyclohexylmethylGly]-NH2) | 1.56 to 3.13 µg/mL | 62 ± 3 µg/mL (≈ 78.4 µM) |  | % ACN [2]: 71.4%
CCCCCCCCCCCCCNCC(=O)N(CC(=O)N(CCCCN)CC(=O)N(CCN)CC(=O)N(CC(N)=O)Cc1cccs1)Cc1cccs1 [Compound 25] (H-[N(tridecyl)Gly][N(2-thienylmethyl)Gly][Nlys][Gly(N-2-aminoethyl)][N(2-thienylmethyl)Gly]-NH2) | 1.56 to 3.13 µg/mL | 154 ± 47 µg/mL (≈ 195 µM) |  | 
OC(Cn1cncn1)(Cn1cncn1)c1ccc(F)cc1F [Fluconazole] |  |  |  | MIC [1, 5]: 2 µg/mL; interpretation of combination with RMG8-8 [1]: indifferent; Combination MIC RMG8-8:Drug, RMG8-8 part [1]: 1.56 µg/mL; Combination MIC RMG8-8:Drug, Drug part [1]: 2 µg/mL; FICi [1]: 2
Nc1[nH]c(=O)ncc1F [Flucytosine] |  |  |  | MIC [1, 5]: 2 µg/mL; interpretation of combination with RMG8-8 [1]: indifferent; Combination MIC RMG8-8:Drug, RMG8-8 part [1]: 1.56 µg/mL; Combination MIC RMG8-8:Drug, Drug part [1]: 2 µg/mL; FICi [1]: 2
CNCC(=O)N(CC(=O)N(CCCCN)CC(=O)N(CCN)CC(=O)N(CC(N)=O)C1CCCCC1)C1CCCCC1 [Position 1] (H-[Sar][Gly(N-cHex)][Nlys][Gly(N-2-aminoethyl)][Gly(N-cHex)]-NH2) |  | > 200 µg/mL | >50.00 µg/mL | 
CCCCCCCCCCCCCNCC(=O)N(C)CC(=O)N(CCCCN)CC(=O)N(CCN)CC(=O)N(CC(N)=O)C1CCCCC1 [Position 2] (H-[N(tridecyl)Gly][Sar][Nlys][Gly(N-2-aminoethyl)][Gly(N-cHex)]-NH2) |  | > 200 µg/mL | 6.25 µg/mL (≈ 8.99 µM) | 
CCCCCCCCCCCCCNCC(=O)N(CC(=O)N(C)CC(=O)N(CCN)CC(=O)N(CC(N)=O)C1CCCCC1)C1CCCCC1 [Position 3] |  | 83 µg/mL (≈ 118 µM) | 3.13 µg/mL (≈ 4.43 µM) | 
CCCCCCCCCCCCCNCC(=O)N(CC(=O)N(CCCCN)CC(=O)N(C)CC(=O)N(CC(N)=O)C1CCCCC1)C1CCCCC1 [Position 4] (H-[N(tridecyl)Gly][Gly(N-cHex)][Nlys][Sar][Gly(N-cHex)]-NH2) |  | 84 µg/mL (≈ 114 µM) | 3.13 µg/mL (≈ 4.26 µM) | 
CCCCCCCCCCCCCNCC(=O)N(CC(=O)N(CCCCN)CC(=O)N(CCN)CC(=O)N(C)CC(N)=O)C1CCCCC1 [Position 5] (H-[N(tridecyl)Gly][Gly(N-cHex)][Nlys][Gly(N-2-aminoethyl)][Sar]-NH2) |  | > 200 µg/mL | 6.25 µg/mL (≈ 8.99 µM) | 
